According to article PMC7118210 (Frontiers in Pharmacology, 2020):
Where two headings read alike, the source gives them in different places.

Legend:
[1] = Single ascending dose and food-effect pharmacokinetics of naringin tablets in healthy humans; format: in vivo, human; conditions: for Tmax / half-life / AUC(0-inf) / AUC(0-t) / Cmax / MRT last / MRT inf / effect of a high-fat diet on t1/2, Tmax, Cmax and AUC / CL: human; for Tmax / half-life / AUC(0-inf) / AUC(0-t) / Cmax / MRT last / MRT inf: plasma; for MRT last: read-out: MRT0-t; for MRT inf: read-out: MRT0-∞; for effect of a high-fat diet on t1/2, Tmax, Cmax and AUC: food-effect trial, naringin 160 mg p.o.
Text: Participants were healthy males and females, 18 to 40 years old, ≥50 kg weight, 19 to 25 kg m^2 body mass index. The health condition of participants was considered good based on the screened medical history, physical examination, vital signs, electrocardiogram, and laboratory examination. […] Clinical laboratory test results (sodium, potassium, total protein, white blood and red blood cell counts, hematocrit, hemoglobin, platelet count, aspartate aminotransferase, alanine aminotransferase, gamma-glutamyl transferase, blood urea nitrogen, creatinine, total bilirubin, alkaline phosphatase, creatine kinase, lactate dehydrogenase, calcium, chloride, phosphorus, albumin, globulin, cholesterol, triglycerides, glucose, uric acid, and urinalysis) had to be within normal ranges, without other clinically significant abnormalities. During the study duration, participants were required to use barrier contraception with spermicide during sexual intercourse. During the trial, female participants were in the nonmenstrual, nonpregnant, and nonlactation periods, and they were nonsmokers. Participants were not planning a pregnancy within 6 months of the clinical trials, they communicated with the investigator, understood and complied with the study requirements, and signed informed consent.
Using the Statistical Analysis System (SAS) software (Version 9.4, SAS Institute Inc., Cary, NC, USA), subject randomization and blinding/masking were performed by statisticians from the Department of Health Statistics at the Second Military Medical University.
All blood samples were transferred into heparin-treated centrifuge tubes and centrifuged for 10 min at 4,000 rpm and 4°C. All human urine samples were mixed and transferred (4 ml) into storage tubes. All biological samples were stored at −80°C.
The optimal volume and activity in unit volume of enzyme solution [0.2 M acetic acid/water solution: 0.2 M ammonium acetate/water solution, 15:35 (v/v)] were determined through a pretest of the enzyme (rat plasma, 10 μl, 10 U μl^-1; dog plasma, 10 μl, 10 U μl^-1; human plasma, 20 μl, 20 U μl^-1; human urine, 10 μl, 10 U μl^-1). […] To each fecal sample, 9-fold methanol-normal saline (2:1, v/v) was added, mixed (18,000 rpm, 15 min) by vortexing and centrifuged (10 min, 9,000 rpm, 4°C). […] Then, all plasma, urine, and fecal samples were extracted with ethyl acetate (rat plasma, 800 μl; dog plasma, 1,000 μl; human plasma, 3,000 μl; human urine, 3,000 μl; human feces, 3,000 μl) for at least 3 min by vortexing, centrifuged for 10 min at 3,900 rpm and 4°C; supernatants were transferred into centrifuge tubes and dried with N2. The solid material was dissolved with acetonitrile-water (1:1, v/v) and injected into the ultra high-performance liquid chromatography coupled with triple quadrupole mass spectrometry (UHPLC/MS/MS) system as described below.
The analysis of nonclinical and clinical samples was performed with a UHPLC/MS/MS system that consisted of a Shimadzu Nexera X2 ultra high-performance liquid chromatography (UHPLC) (Shimadzu Corp., Kyoto, Japan) coupled with an AB Sciex API4000 triple-quadrupole mass spectrometry (MS/MS) system (AB Sciex, Foster City, CA, USA) equipped with an electrospray ionization source and controlled by Analyst (v. 1.6.2) software. […] The mobile phase consisted of 0.1% formic acid (v/v) in water (A) and 0.1% formic acid in acetonitrile (B) using a linear gradient of 90% A (0–0.5 min), 90 to 60% A (0.5–1.5 min), 60% to 40% A (1.5–3.5 min), 40% to 10% A (3.5–4.5 min), 10% A (4.5–5.5 min), 10% to 90% A (5.5–6.0 min), and 90% A (6.0–7.5 min) for plasma; and 80% A (0–0.2 min), 80 to 64% A (0.2–2.0 min), 64% to 63% A (2.0–4.4 min), 63% to 0% A (4.4–4.5 min), 0% A (4.5–5.5 min), 0% to 90% A (5.5–5.6 min), 90% A (5.6–5.9 min), 90% to 35% A (5.9–6.0 min), 35% A (6.0–6.2 min), 35 to 80% A (6.2–6.3 min), and 80% A (6.3–7.5 min) for urine and feces.

[2] = set-up: method as in Liu M. et al., 2012; conditions: dogs, ref Liu M. et al., 2012, cited from earlier work
[3] = both sexes, oral, naringin in humans, clinical studies overall
[4] = both sexes, po, 40 mg, naringin 40 mg p.o. single dose
[5] = both sexes, po, 80 mg, naringin 80 mg p.o. single dose
[6] = both sexes, po, 160 mg, naringin 160 mg (high-fat diet) p.o. single dose
[7] = both sexes, po, 160 mg, naringin 160 mg p.o. single dose
[8] = both sexes, po, 320 mg, naringin 320 mg p.o. single dose
[9] = both sexes, po, 480 mg, naringin 480 mg p.o. single dose
[10] = female, po, 40 mg, naringin 40 mg p.o. single dose
[11] = female, po, 80 mg, naringin 80 mg p.o. single dose
[12] = female, po, 160 mg, naringin 160 mg p.o. single dose
[13] = female, po, 160 mg, naringin 160 mg p.o. single dose, high-fat diet group, female
[14] = male, po, 40 mg, naringin 40 mg p.o. single dose
[15] = male, po, 80 mg, naringin 80 mg p.o. single dose
[16] = male, po, 160 mg, naringin 160 mg p.o. single dose
[17] = male, po, 160 mg, naringin 160 mg p.o. single dose, high-fat diet group, male

Structure (SMILES): C[C@@H]1O[C@@H](O[C@H]2[C@H](Oc3cc(O)c4c(c3)O[C@H](c3ccc(O)cc3)CC4=O)O[C@H](CO)[C@@H](O)[C@@H]2O)[C@H](O)[C@H](O)[C@H]1O [naringin, Naringin]
- Tmax [1, 3]: 2.09 ± 1.15 h
- half-life [1, 3]: 2.69 ± 1.77 h
- AUC(0-inf) [1, 4]: 9.99 ± 4.22 ng·h/mL
- AUC(0-t) [1, 4]: 7.61 ± 3.5 ng·h/mL
- Cmax [1, 4]: 2.24 ± 0.67 ng/mL
- Tmax [1, 4]: 1.97 ± 1.11 h
- half-life [1, 4]: 2.48 ± 1.64 h
- MRT last [1, 4]: 2.66 ± 0.443 h
- MRT inf [1, 4]: 4.9 ± 1.69 h
- AUC(0-inf) [1, 5]: 12.2 ± 3.19 ng·h/mL
- AUC(0-t) [1, 5]: 9.27 ± 3.37 ng·h/mL
- Cmax [1, 5]: 2.94 ± 1.17 ng/mL
- Tmax [1, 5]: 2.09 ± 1.39 h
- half-life [1, 5]: 1.9 ± 1.22 h
- MRT last [1, 5]: 2.8 ± 0.543 h
- MRT inf [1, 5]: 3.83 ± 1.69 h
- AUC(0-inf) [1, 6]: 18.2 ± 5.81 ng·h/mL
- AUC(0-t) [1, 6]: 12.8 ± 4.74 ng·h/mL
- Cmax [1, 6]: 3.04 ± 1.15 ng/mL
- Tmax [1, 6]: 2.66 ± 1.87 h
- half-life [1, 6]: 3.11 ± 1.95 h
- MRT last [1, 6]: 3.45 ± 1.22 h
- MRT inf [1, 6]: 6.19 ± 2.77 h
- AUC(0-inf) [1, 7]: 22.4 ± 9.36 ng·h/mL
- AUC(0-t) [1, 7]: 15.7 ± 7.51 ng·h/mL
- Cmax [1, 7]: 4.29 ± 2.63 ng/mL
- Tmax [1, 7]: 2.5 ± 1.41 h
- half-life [1, 7]: 3.64 ± 3.01 h
- MRT last [1, 7]: 3.3 ± 1.12 h
- MRT inf [1, 7]: 6.54 ± 4.41 h
- AUC(0-inf) [1, 8]: 39.8 ± 32.2 ng·h/mL
- AUC(0-t) [1, 8]: 37.5 ± 32.2 ng·h/mL
- Cmax [1, 8]: 10.9 ± 12.4 ng/mL
- Tmax [1, 8]: 1.66 ± 0.99 h
- half-life [1, 8]: 2.51 ± 1.58 h
- MRT last [1, 8]: 3.17 ± 0.677 h
- MRT inf [1, 8]: 4.01 ± 1.05 h
- AUC(0-inf) [1, 9]: 21.2 ± 7.95 ng·h/mL
- AUC(0-t) [1, 9]: 19.4 ± 7.86 ng·h/mL
- Cmax [1, 9]: 5.69 ± 2.8 ng/mL
- Tmax [1, 9]: 1.66 ± 0.834 h
- half-life [1, 9]: 2.01 ± 0.498 h
- MRT last [1, 9]: 3.08 ± 0.704 h
- MRT inf [1, 9]: 3.86 ± 0.779 h
- AUC(0-inf) [1, 10]: 5.83 ± 0.737 ng·h/mL
- AUC(0-t) [1, 10]: 4.64 ± 1.01 ng·h/mL
- Cmax [1, 10]: 1.92 ± 0.516 ng/mL
- Tmax [1, 10]: 2.67 ± 1.53 h
- half-life [1, 10]: 1.49 ± 0.849 h
- AUC(0-inf) [1, 11]: 11.5 ± 2.69 ng·h/mL
- AUC(0-t) [1, 11]: 10.2 ± 2.28 ng·h/mL
- Cmax [1, 11]: 3.3 ± 0.916 ng/mL
- Tmax [1, 11]: 1.44 ± 0.657 h
- half-life [1, 11]: 1.48 ± 0.448 h
- AUC(0-inf) [1, 12]: 25.9 ± 8.47 ng·h/mL
- AUC(0-t) [1, 12]: 17.8 ± 5.04 ng·h/mL
- Cmax [1, 12]: 3.44 ± 1.08 ng/mL
- Tmax [1, 12]: 3.25 ± 1.71 h
- half-life [1, 12]: 4.57 ± 3.65 h
- AUC(0-inf) [1, 13]: 20.9 ± 4.78 ng·h/mL
- AUC(0-t) [1, 13]: 16.1 ± 3.27 ng·h/mL
- Cmax [1, 13]: 3.78 ± 1.26 ng/mL
- Tmax [1, 13]: 2.88 ± 2.02 h
- half-life [1, 13]: 2.54 ± 1.96 h
- effect of a high-fat diet on t1/2, Tmax, Cmax and AUC [1]: insignificantly altered
- AUC(0-inf) [1, 14]: 12.5 ± 3.18 ng·h/mL
- AUC(0-t) [1, 14]: 9.39 ± 3.23 ng·h/mL
- Cmax [1, 14]: 2.43 ± 0.727 ng/mL
- Tmax [1, 14]: 1.55 ± 0.622 h
- half-life [1, 14]: 3.07 ± 1.78 h
- AUC(0-inf) [1, 15]: 13.2 ± 4.16 ng·h/mL
- AUC(0-t) [1, 15]: 8.35 ± 4.36 ng·h/mL
- Cmax [1, 15]: 2.58 ± 1.43 ng/mL
- Tmax [1, 15]: 2.75 ± 1.71 h
- half-life [1, 15]: 2.46 ± 1.83 h
- AUC(0-inf) [1, 16]: 17.7 ± 9.93 ng·h/mL
- AUC(0-t) [1, 16]: 13.7 ± 9.73 ng·h/mL
- Cmax [1, 16]: 5.14 ± 3.6 ng/mL
- Tmax [1, 16]: 1.75 ± 0.5 h
- half-life [1, 16]: 2.41 ± 1.79 h
- AUC(0-inf) [1, 17]: 14.7 ± 5.83 ng·h/mL
- AUC(0-t) [1, 17]: 9.56 ± 3.57 ng·h/mL
- Cmax [1, 17]: 2.3 ± 0.201 ng/mL
- Tmax [1, 17]: 2.44 ± 1.98 h
- half-life [1, 17]: 3.86 ± 2.02 h
- CL ([1]; naringin 40 mg p.o. single dose): 1120 ± 605 mL/min/kg
- CL ([1]; naringin 80 mg p.o. single dose): 1720 ± 832 mL/min/kg
- CL ([1]; naringin 160 mg (high-fat diet) p.o. single dose): 2870 ± 1070 mL/min/kg
- CL ([1]; naringin 160 mg p.o. single dose): 2400 ± 1030 mL/min/kg
- CL ([1]; naringin 320 mg p.o. single dose): 3370 ± 2180 mL/min/kg
- CL ([1]; naringin 480 mg p.o. single dose): 7950 ± 6200 mL/min/kg
- cumulative excretion percentage ([2]; in the forms of naringin, naringenin, and 4-hydroxyphenylpropionic acid): 60%
- time within which excreted [2]: ≤ 24 h

Structure (SMILES): O=C1C[C@@H](c2ccc(O)cc2)Oc2cc(O)cc(O)c21 [naringenin, Naringenin]
- half-life ([1]; both sexes, oral, naringenin in humans, studies overall): 2.6 ± 1.89 h
- effect of a high-fat diet on t1/2, Tmax, Cmax and AUC [1]: insignificantly altered
- lag-time in plasma ([1]; human plasma, after p.o. naringin): 5.74 ± 2.38 h
- time for concentrations to increase to Cmax after the lag-time ([1]; humans, after p.o. naringin): about 3.62 ± 3.19 h
- time within which excreted [2]: ≤ 24 h
